One compound from publication PMC8162438, “Cancer cell-selective modulation of mitochondrial respiration and metabolism by potent organogold(III) dithiocarbamates” (Chemical Science, 2020) can be followed below.

The subject of this assay is MDA-MB-231. The experiment in a line: Immunoblotting of apoptosis proteins. The format is cell-based. From the text:
Apoptosis is a common cell death pathway for chemotherapeutics which can be characterized by distinct morphological features and biochemical mechanisms.[88,89] Apoptosis occurs normally in healthy cells to maintain a healthy population of cells during aging or development of tissues. Some transition metal-based drugs can trigger apoptosis due to […] of p53 dependant pathway (a tumour suppressor gene).[90,91] Populations of apoptotic cells can be determined by containing cells with Annexin V and PI.[92,93] Cells undergoing apoptosis contain ample amount of phosphatidylserine (PS) which can be bound by Annexin V. The Annexin is then labelled with FITC, a green fluorogenic dye which can be visualized by fluorescence activated cell sorting (FACS). […]
positive control. When ready for analysis, the media were removed and the wells washed with 5 mL of PBS. […] The cells were resuspended in 2 mL of fresh media, counted, and reconstituted to a concentration of 1 x 10^5 cells/mL. […]
Compound 2a was prepared as a stock in DMSO and added to the respective wells at the specified concentrations of 0.1, 1, and 10 µM and treated for 12 h. […] The samples were cooled and stored at −20 °C until ready for use. […] Immuno complexes were detected with the ECL detection reagent (BioRad) and analyzed using a BioRad imager with a chemiluminescence filter. […]

As to `C[N+](C)=C1[S][Au-2]2([S]1)[c]1ccccc1Cc1cccc[n+]12.F[P-](F)(F)(F)(F)F` (centres unmarked) [2a], the “Cleaved PARP expression (immunoblot)” value (MDA-MB-231, 0.1, 1, 10 µM, 12 h) is listed as “unaltered protein expression”. Also, the “Caspase 3 and cleaved caspase 3 expression (immunoblot)” value (MDA-MB-231, concentration dependent (0.1, 1, 10 µM, 12 h)) is “upregulated”.
